The values below come from US20110136801A1, “Novel Compounds” (Dainippon Sumitomo Pharma Co. Ltd., priority 2009, published 2011).

The target in this experiment is T1, human TLR7 (Homo sapiens, UniProt Q9NYK1).
T1 construct: expressed in transfected cells; host or cells: HEK293 cell line stably expressing the pNiFty2-SEAP reporter plasmid; TLR7 in pUNO vector, blasticidin selection
T1 sequence (Q9NYK1 27-1049): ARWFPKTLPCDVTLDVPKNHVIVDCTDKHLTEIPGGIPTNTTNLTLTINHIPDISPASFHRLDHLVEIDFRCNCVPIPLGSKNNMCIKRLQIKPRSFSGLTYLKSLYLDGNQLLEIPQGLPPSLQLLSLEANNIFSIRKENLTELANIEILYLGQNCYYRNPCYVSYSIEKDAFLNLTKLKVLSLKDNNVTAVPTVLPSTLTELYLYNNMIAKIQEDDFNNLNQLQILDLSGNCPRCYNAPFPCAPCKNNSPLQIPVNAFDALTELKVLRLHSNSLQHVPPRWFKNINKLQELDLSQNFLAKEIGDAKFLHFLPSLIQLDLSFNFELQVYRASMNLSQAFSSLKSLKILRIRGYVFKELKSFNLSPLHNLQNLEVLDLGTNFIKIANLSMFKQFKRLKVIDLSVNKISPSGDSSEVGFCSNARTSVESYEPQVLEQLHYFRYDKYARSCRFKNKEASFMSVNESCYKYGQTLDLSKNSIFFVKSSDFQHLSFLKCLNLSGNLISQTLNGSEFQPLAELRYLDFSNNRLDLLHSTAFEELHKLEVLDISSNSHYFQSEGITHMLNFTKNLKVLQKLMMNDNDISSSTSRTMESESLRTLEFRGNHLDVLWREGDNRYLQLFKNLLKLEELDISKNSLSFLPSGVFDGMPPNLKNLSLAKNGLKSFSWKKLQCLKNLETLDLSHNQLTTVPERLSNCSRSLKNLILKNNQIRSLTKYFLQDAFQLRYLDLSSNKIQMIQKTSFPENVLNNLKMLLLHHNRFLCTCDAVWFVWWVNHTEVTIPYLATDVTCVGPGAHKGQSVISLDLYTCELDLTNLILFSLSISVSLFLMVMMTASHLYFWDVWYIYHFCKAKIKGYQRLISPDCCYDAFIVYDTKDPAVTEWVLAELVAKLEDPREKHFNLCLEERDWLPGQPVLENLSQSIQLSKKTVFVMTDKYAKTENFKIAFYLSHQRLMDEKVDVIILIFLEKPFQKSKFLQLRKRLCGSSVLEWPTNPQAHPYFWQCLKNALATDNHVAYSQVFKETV
Briefly: Human TLR7 Assay (SEAP reporter in HEK293 cells).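 Note: Read-out is secreted alkaline phosphatase made under an NFkB/ELAM-1 composite promoter, reporting TLR7-triggered NFkB activation.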 The following applies: HEK293 cell line expressing human TLR7 and pNiFty2-SEAP reporter, overnight incubation at 37° C., 0.1% DMSO; read-out: hTLR7 EC50. The experiment is classed as cell-based.
For orientation: EC50 means the concentration needed to bring the measured effect to its halfway point. In the case of `CCOC(=O)COc1cccc(CN(CCCn2c(CCOC)nc3c(N)nc4ccccc4c32)C(=O)CN(CC)CC)c1` [Example 25, Ethyl 2-{3-[(N-{3-[4-amino-2-(2-methoxyethyl)-1H-imidazo[4,5-c]quinolin-1-yl]propyl}-2-(diethylamino)acetamido)methyl]phenoxy}acetate], the EC50 was 0.0587 µM. Under `COCCc1nc2c(N)nc3ccccc3c2n1CCCNC(=O)N(CCCN(C)C)Cc1ccc(OCC(=O)OC)cc1` [Example 22, Methyl [4-({[({3-[4-amino-2-(2-methoxyethyl)-1H-imidazo[4,5-c]quinolin-1-yl]propyl}amino)carbonyl][3-(dimethylamino)propyl]amino}methyl)phenoxy]acetate] stands 0.188 µM; under `CCOC(=O)COc1cccc(CN(CCCn2c(CCOC)nc3c(N)nc4ccccc4c32)C(=O)CN2CCCC2)c1` [Example 31, Ethyl 2-{3-[(N-{3-[4-amino-2-(2-methoxyethyl)-1H-imidazo[4,5-c]quinolin-1-yl]propyl}-2-(pyrrolidin-1-yl)acetamido)methyl]phenoxy}acetate], 0.15 µM; under `COCCc1nc2c(N)nc3ccccc3c2n1CCCCN(CCN(C)C)Cc1cccc(OC(C)(C)C(=O)OC)c1` [Example 135, Methyl 2-{3-[({4-[4-amino-2-(2-methoxyethyl)-1H-imidazo[4,5-c]quinolin-1-yl]butyl}{2-(dimethylamino)ethyl}amino)methyl]phenoxy}-2-methylpropanoate], 0.0166 µM. Take `CCN(CC)CC(=O)N(CCCn1c(CCOC)nc2c(N)nc3ccccc3c21)Cc1cc(F)cc(OCC(=O)OC(C)C)c1` [Example 123, Isopropyl 2-{3-[(N-{3-[4-amino-2-(2-methoxyethyl)-1H-imidazo[4,5-c]quinolin-1-yl]propyl}-2-{diethylamino}acetamido)methyl]-5-fluorophenoxy}acetate]: the EC50 was determined as 0.0502 µM. Next, `CCN(CC)CC(=O)N(CCCn1c(CCOC)nc2c(N)nc3ccccc3c21)Cc1ccc(OC)c(OCC(=O)OC)c1` [Example 63, Methyl 2-{5-[(N-{3-[4-amino-2-(2-methoxyethyl)-1H-imidazo[4,5-c]quinolin-1-yl]propyl}-2-{diethylamino}acetamido)methyl]-2-methoxyphenoxy}acetate]: 0.212 µM; `COCCc1nc2c(N)nc3ccccc3c2n1CCCCN(CCCN1CCOCC1)Cc1cccc(OC(C)(C)C(=O)OC)c1` [Example 137, Methyl 2-{3-[({4-[4-amino-2-(2-methoxyethyl)-1H-imidazo[4,5-c]quinolin-1-yl]butyl}{3-morpholinopropyl}amino)methyl]phenoxy}-2-methylpropanoate]: 0.0877 µM; `CCN(CC)CC(=O)N(CCCn1c(CCOC)nc2c(N)nc3ccccc3c21)Cc1cccc(OC(C)C(=O)OC)c1` (stereo not shown) [Example 51, Methyl 2-{3-[(N-{3-[4-amino-2-(2-methoxyethyl)-1H-imidazo[4,5-c]quinolin-1-yl]propyl}-2-{diethylamino}acetamido)methyl]phenoxy}propanoate]: 0.0426 µM. Under `CCCCc1nc2c(N)nc3ccccc3c2n1CCCN(Cc1cccc(OC(C)(C)C(=O)OCC)c1)C(=O)CN1CCCC1` [Example 168, Ethyl 2-[3-({N-[3-(4-amino-2-butyl-1H-imidazo[4,5-c]quinolin-1-yl)propyl]-2-(pyrrolidin-1-yl)acetamido}methyl)phenoxy]-2-methylpropanoate] stands 0.166 µM; under `CCOC(=O)COc1cccc(CN(CCCCn2c(CCOC)nc3c(N)nc4ccccc4c32)C(=O)NCCCN(C)C)c1` [Example 129, Ethyl 2-{3-[(1-{4-[4-amino-2-(2-methoxyethyl)-1H-imidazo[4,5-c]quinolin-1-yl]butyl}-3-{3-(dimethylamino)propyl}ureido)methyl]phenoxy}acetate], 0.204 µM; under `CCCCc1nc2c(N)nc3ccccc3c2n1CCCN(Cc1ccc(OCC(=O)OC)cc1)C(=O)CN1CCN(C)CC1` [Example 7, Methyl [4-({[3-(4-amino-2-butyl-1H-imidazo[4,5-c]quinolin-1-yl)propyl][(4-methylpiperazin-1-yl)acetyl]amino}methyl)phenoxy]acetate], 0.633 µM. Next, `CCN(C)CC(=O)N(CCCn1c(CCOC)nc2c(N)nc3ccccc3c21)Cc1ccc(OC)c(OCC(=O)OC(C)C)c1` [Example 76, Isopropyl 2-{5-[(N-{3-[4-amino-2-(2-methoxyethyl)-1H-imidazo[4,5-c]quinolin-1-yl]propyl}-2-{ethyl(methyl)amino}acetamido)methyl]-2-methoxyphenoxy}acetate]: 0.211 µM; `CCOC(=O)COc1ccc(CN(CCN2CCCCC2)C(=O)NCCCCn2c(CCOC)nc3c(N)nc4ccccc4c32)cc1` [Example 131, Ethyl 2-{4-[(3-{4-[4-amino-2-(2-methoxyethyl)-1H-imidazo[4,5-c]quinolin-1-yl]butyl}-1-{2-(piperidin-1-yl)ethyl}ureido)methyl]phenoxy}acetate]: 0.0375 µM. Consider `CCOC(=O)C(C)(C)Oc1cccc(CN(CCCn2c(CCOC)nc3c(N)nc4ccccc4c32)C(=O)CN(C)C)c1` [Example 148, Ethyl 2-{3-[(N-{3-[4-amino-2-(2-methoxyethyl)-1H-imidazo[4,5-c]quinolin-1-yl]propyl}-2-{dimethylamino}acetamido)methyl]phenoxy}-2-methylpropanoate], for which the EC50 is 0.115 µM.

For `CCN(C)CC(=O)N(CCCn1c(CCOC)nc2c(N)nc3ccccc3c21)Cc1cccc(OCC(=O)OC(C)C)c1` [Example 114, Isopropyl 2-{3-[(N-{3-[4-amino-2-(2-methoxyethyl)-1H-imidazo[4,5-c]quinolin-1-yl]propyl}-2-{ethyl(methyl)amino}acetamido]methyl)phenoxy}acetate], the concentration giving a half-maximal response (EC50) came to 0.0678 µM.

With `CCOCc1nc2c(N)nc3ccccc3c2n1CCCN(Cc1cccc(OCC(=O)OC(C)C)c1F)C(=O)CN(C)C` [Example 167, Isopropyl 2-{3-[(N-{3-[4-amino-2-(ethoxymethyl)-1H-imidazo[4,5-c]quinolin-1-yl]propyl}-2-{dimethylamino}acetamido)methyl]-2-fluorophenoxy}acetate], the EC50 was determined as 0.716 µM. In the case of `CCCCc1nc2c(N)nc3ccccc3c2n1CCCN(Cc1cccc(OCC(=O)OC)c1)C(=O)CN(CC)CC` [Example 14, Methyl (3-{[[3-(4-amino-2-butyl-1H-imidazo[4,5-c]quinolin-1-yl)propyl](N,N-diethylglycyl)amino]methyl}phenoxy)acetate], the EC50 is 0.0736 µM. Turning to `CCOC(=O)C(C)(C)Oc1cccc(CN(CCCCn2c(CCOC)nc3c(N)nc4ccccc4c32)CCN(C)C)c1` [Example 134, Ethyl 2-{3-[({4-[4-amino-2-(2-methoxyethyl)-1H-imidazo[4,5-c]quinolin-1-yl]butyl}{2-(dimethylamino)ethyl}amino)methyl]phenoxy}-2-methylpropanoate], the EC50 amounted to 0.0209 µM. For `CCOC(=O)C(C)(C)Oc1cccc(CN(CCCn2c(CCOC)nc3c(N)nc4ccccc4c32)C(=O)CN(CC)CC)c1` [Example 55, Ethyl 2-{3-[(N-{3-[4-amino-2-(2-methoxyethyl)-1H-imidazo[4,5-c]quinolin-1-yl]propyl}-2-{diethylamino}acetamido)methyl]phenoxy}-2-methylpropanoate], the EC50 stood at 0.0464 µM. Turning to `CCN(CC)CC(=O)N(CCCn1c(CCOC)nc2c(N)nc3ccccc3c21)Cc1ccc(OC)c(OCC(=O)OC(C)C)c1` [Example 72, Isopropyl 2-{5-[(N-{3-[4-amino-2-(2-methoxyethyl)-1H-imidazo[4,5-c]quinolin-1-yl]propyl}-2-{diethylamino}acetamido)methyl]-2-methoylphenoxy}acetate], the EC50 worked out at 0.0558 µM. On to `CCCCc1nc2c(N)nc3ccccc3c2n1CCCN(Cc1cccc(OCC(=O)OC(C)C)c1F)C(=O)CN(CC)CC` [Example 164, Isopropyl 2-[3-({N-[3-(4-amino-2-butyl-1H-imidazo[4,5-c]quinolin-1-yl)propyl]-2-(diethylamino)acetamido}methyl)-2-fluorophenoxy]acetate], for which the EC50 was determined as 0.158 µM. In the case of `COCCc1nc2c(N)nc3ccccc3c2n1CCCN(Cc1cccc(OCC(=O)OC)c1)C(=O)CN1CCN(C)CC1` [Example 18, Methyl (3-{[[3-(4-amino-2-(2-methoxyethyl)-1H-imidazo[4,5-c]quinolin-1-yl)propyl][(4-methylpiperazin-1-yl)acetyl]amino]methyl}phenoxy)acetate], the EC50 is 1.27 µM.
